Data: PubChem BioAssay AID248 (DTP/NCI, 2004)
Values joined by “and” are separate entries in the source; they are usually repeats but may differ in a detail not shown here. Equal values may be shown once. Toxic doses and inconclusive results are not listed. No stated cut-off is given here; in the data, active means T/C of 150% or more; inactive means T/C below 125%.

Test system: L1210 leukemia ip in BDF1 mice, survival T/C
Assay: NCI In Vivo Anticancer Drug Screen. Data for tumor model L1210 Leukemia (intraperitoneal) in B6D2F1 (BDF1) mice
Settings: endpoint: mean survival time, higher = longer survival
Procedure, shortened: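 Value reflects the ratio of survival in compound-treated mice to survival in vehicle-treated controls, with both groups carrying the same transplanted tumor.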

[1] = dose: 25.0 mg/kg/injection, schedule: Q01DX009 (ip), vehicle: saline with Tween-80
[2] = dose: 50.0 mg/kg/injection, schedule: Q01DX009 (ip), vehicle: saline with Tween-80
[3] = dose: 100.0 mg/kg/injection, schedule: Q01DX009 (ip), vehicle: saline with Tween-80
[4] = dose: 100.0 mg/kg/injection, schedule: Q04DX003 (ip), vehicle: saline with Tween-80
[5] = dose: 200.0 mg/kg/injection, schedule: Q04DX003 (ip), vehicle: saline with Tween-80
[6] = dose: 400.0 mg/kg/injection, schedule: Q04DX003 (ip), vehicle: saline with Tween-80
[7] = dose: 50.0 mg/kg/injection, schedule: Q01DX009 (ip), vehicle: saline
[8] = dose: 100.0 mg/kg/injection, schedule: Q01DX001 (ip), vehicle: saline
[9] = dose: 100.0 mg/kg/injection, schedule: Q01DX009 (ip), vehicle: saline
[10] = dose: 200.0 mg/kg/injection, schedule: Q01DX001 (ip), vehicle: saline
[11] = dose: 100.0 mg/kg/injection, schedule: Q01DX001 (ip), vehicle: Klucel (hydroxypropylcellulose) (HPC)
[12] = dose: 100.0 mg/kg/injection, schedule: Q01DX009 (ip), vehicle: Klucel (hydroxypropylcellulose) (HPC)
[13] = dose: 200.0 mg/kg/injection, schedule: Q01DX001 (ip), vehicle: Klucel (hydroxypropylcellulose) (HPC)
[14] = dose: 400.0 mg/kg/injection, schedule: Q01DX001 (ip), vehicle: Klucel (hydroxypropylcellulose) (HPC)
[15] = dose: 400.0 mg/kg/injection, schedule: Q01DX009 (ip), vehicle: Klucel (hydroxypropylcellulose) (HPC)
[16] = dose: 200.0 mg/kg/injection, schedule: Q01DX009 (ip), vehicle: Klucel (hydroxypropylcellulose) (HPC)
[17] = dose: 100.0 mg/kg/injection, schedule: Q01DX001 (ip), vehicle: saline with Tween-80
[18] = dose: 200.0 mg/kg/injection, schedule: Q01DX001 (ip), vehicle: saline with Tween-80
[19] = dose: 200.0 mg/kg/injection, schedule: Q01DX009 (ip), vehicle: saline with Tween-80
[20] = dose: 400.0 mg/kg/injection, schedule: Q01DX001 (ip), vehicle: saline with Tween-80
[21] = dose: 400.0 mg/kg/injection, schedule: Q01DX009 (ip), vehicle: saline with Tween-80
[22] = dose: 100.0 mg/kg/injection, schedule: Q04DX003 (ip), vehicle: Klucel (hydroxypropylcellulose) (HPC)
[23] = dose: 200.0 mg/kg/injection, schedule: Q04DX003 (ip), vehicle: Klucel (hydroxypropylcellulose) (HPC)
[24] = dose: 400.0 mg/kg/injection, schedule: Q04DX003 (ip), vehicle: Klucel (hydroxypropylcellulose) (HPC)

Measured: T/C

CC[N+](CC)(CC)CCCC[P+](CC)(CC)CC
inactive: dose: 12.0 mg/kg/injection, schedule: Q04DX003 (ip), vehicle: other 95 % of control | dose: 25.0 mg/kg/injection, schedule: Q04DX003 (ip), vehicle: other 90 % of control | dose: 50.0 mg/kg/injection, schedule: Q04DX003 (ip), vehicle: other 93 % of control

CNC(=S)N/N=C/CSC/C=N/NC(=S)NC
inactive: dose: 0.2 mg/kg/injection, schedule: Q03HX024 (ip), vehicle: saline with Tween-80 100 % of control | dose: 0.39 mg/kg/injection, schedule: Q03HX024 (ip), vehicle: saline with Tween-80 97 % of control | dose: 0.78 mg/kg/injection, schedule: Q03HX024 (ip), vehicle: saline with Tween-80 93 % of control | dose: 1.56 mg/kg/injection, schedule: Q03HX024 (ip), vehicle: saline with Tween-80 108 % of control | dose: 3.13 mg/kg/injection, schedule: Q03HX024 (ip), vehicle: saline with Tween-80 100 % of control

Cc1ccc(NC(=S)Nc2cccc(C(F)(F)F)c2)cc1C
inactive: dose: 87.5 mg/kg/injection, schedule: Q01DX009 (ip), vehicle: Klucel (hydroxypropylcellulose) (HPC) 101 % of control | dose: 175.0 mg/kg/injection, schedule: Q01DX009 (ip), vehicle: Klucel (hydroxypropylcellulose) (HPC) 98 % of control | dose: 350.0 mg/kg/injection, schedule: Q01DX009 (ip), vehicle: Klucel (hydroxypropylcellulose) (HPC) 102 % of control

CCN(CC)CCNC(Cc1ccccc1)c1cccc(OC)c1 (stereo not drawn)
inactive: dose: 100.0 mg/kg/injection, schedule: Q01DX001 (ip), vehicle: carboxymethylcellulose (CMC) 96 % of control

COc1ccc(NC(=O)Nc2ccc(F)c([N+](=O)[O-])c2)c(Cl)c1
inactive: [1] 95 % of control | [2] 100 % of control | [3] 96 % of control

CC1CCCC(C)N1NC1=NCCO1 (stereo not drawn)
inactive: [1] 96 % of control | [2] 98 % of control | [3] 97 % of control | [4] 100 % of control

COc1ccc(/C=N\NC(=O)c2ccccc2)cc1
inactive: [4] 102 % of control | [5] 103 % of control | [6] 92 % of control

O=[N+]([O-])c1ccc(NCCNC(c2ccccc2)(c2ccccc2)c2ccccc2)c([N+](=O)[O-])c1
inactive: [7] 96 % of control | [8] 87 % of control | [9] 91 % of control | [10] 90 % of control | dose: 200.0 mg/kg/injection, schedule: Q01DX009 (ip), vehicle: saline 93 % of control

O=c1[nH]c(Nc2ccccc2)c([N+](=O)[O-])c(=O)[nH]1
inactive: dose: 9.0 mg/kg/injection, schedule: Q01DX001 (ip), vehicle: Klucel (hydroxypropylcellulose) (HPC) 98 % of control | dose: 18.0 mg/kg/injection, schedule: Q01DX001 (ip), vehicle: Klucel (hydroxypropylcellulose) (HPC) 110 % of control | dose: 37.0 mg/kg/injection, schedule: Q01DX001 (ip), vehicle: Klucel (hydroxypropylcellulose) (HPC) 101 % of control | dose: 75.0 mg/kg/injection, schedule: Q01DX001 (ip), vehicle: Klucel (hydroxypropylcellulose) (HPC) 104 % of control

CC(=O)OC1OC(COC(=O)c2ccccc2)C(OC(=O)c2ccccc2)C1OC(=O)c1ccccc1 (stereo not drawn)
inactive: [11] 118 % of control and 95 % of control | [12] 92 % of control | [13] 97 % of control and 92 % of control | [14] 101 % of control and 92 % of control | [15] 92 % of control

CC(=O)N(C)c1ccc(NC(=O)Nc2c(C)cccc2C)cc1
inactive: dose: 25.0 mg/kg/injection, schedule: Q04DX002 (ip), vehicle: saline 94 % of control | dose: 50.0 mg/kg/injection, schedule: Q01DX009 (ip), vehicle: Klucel (hydroxypropylcellulose) (HPC) 96 % of control | dose: 50.0 mg/kg/injection, schedule: Q04DX002 (ip), vehicle: saline 93 % of control | [12] 98 % of control | dose: 100.0 mg/kg/injection, schedule: Q04DX002 (ip), vehicle: saline 96 % of control | [16] 102 % of control | dose: 200.0 mg/kg/injection, schedule: Q04DX002 (ip), vehicle: saline 110 % of control and 112 % of control | [15] 96 % of control | dose: 400.0 mg/kg/injection, schedule: Q04DX002 (ip), vehicle: saline 94 % of control

COc1ccc(C(=O)/C=C/c2ccccc2)cc1
inactive: [11] 102 % of control | [13] 113 % of control | [14] 100 % of control

Cc1ccc(N=Nc2ccc(C)cc2NC(=O)Nc2cc(C)ccc2C)cc1
inactive: [17] 102 % of control | [3] 98 % of control | dose: 100.0 mg/kg/injection, schedule: Q04DX002 (ip), vehicle: saline with Tween-80 87 % of control and 89 % of control | [18] 109 % of control | [19] 106 % of control | dose: 200.0 mg/kg/injection, schedule: Q04DX002 (ip), vehicle: saline with Tween-80 91 % of control | [20] 90 % of control | [21] 102 % of control | dose: 400.0 mg/kg/injection, schedule: Q04DX002 (ip), vehicle: saline with Tween-80 95 % of control and 89 % of control

Cc1ccc(NC(=O)/C=C\C(=O)O)cc1
inactive: [12] 103 % of control | [22] 97 % of control | [16] 108 % of control | [23] 96 % of control | [15] 91 % of control | [24] 91 % of control

O=C(O)c1ccc(C(=O)O)c([N+](=O)[O-])c1
inactive: dose: 100.0 mg/kg/injection, schedule: Q04DX003 (ip), vehicle: saline 102 % of control | dose: 200.0 mg/kg/injection, schedule: Q04DX003 (ip), vehicle: saline 100 % of control | dose: 400.0 mg/kg/injection, schedule: Q04DX003 (ip), vehicle: saline 96 % of control

F[Si]1(c2cccc(Br)c2)c2ccccc2-c2ccccc21
inactive: [17] 103 % of control | [3] 103 % of control | [18] 100 % of control | [19] 101 % of control | [20] 100 % of control | [21] 104 % of control

CCOP(=O)(OCC)O/N=C(/c1ccccc1)C(C)C
inactive: dose: 5.0 mg/kg/injection, schedule: Q01DX001 (ip), vehicle: saline 98 % of control | dose: 10.0 mg/kg/injection, schedule: Q01DX001 (ip), vehicle: saline 98 % of control | dose: 20.0 mg/kg/injection, schedule: Q01DX001 (ip), vehicle: saline 93 % of control | dose: 40.0 mg/kg/injection, schedule: Q01DX001 (ip), vehicle: saline 100 % of control

CCN(Cc1cc(OC)c(OC)c(OC)c1)C1CCCCC1
inactive: [7] 113 % of control | [9] 98 % of control

Cc1ccc(S(=O)(=O)OCC2OC3(COS(=O)(=O)c4ccc(C)cc4)OC(C)(C)OC3C2O)cc1 (stereo not drawn)
inactive: [1] 92 % of control | [2] 87 % of control | [3] 87 % of control

C1CCN2CC3CC(CN4CCCCC34)C2C1 (stereo not drawn)
inactive: dose: 10.0 mg/kg/injection, schedule: Q01DX009 (ip), vehicle: saline 104 % of control | dose: 20.0 mg/kg/injection, schedule: Q01DX009 (ip), vehicle: saline 102 % of control | dose: 20.0 mg/kg/injection, schedule: Q04DX003 (ip), vehicle: saline 100 % of control | dose: 40.0 mg/kg/injection, schedule: Q01DX009 (ip), vehicle: saline 100 % of control | dose: 40.0 mg/kg/injection, schedule: Q04DX003 (ip), vehicle: saline 96 % of control

CCOC(=O)CC(c1ccccc1)C(C(=O)OCC)C(=O)OCC (stereo not drawn)
inactive: [8] 106 % of control | [10] 103 % of control | dose: 400.0 mg/kg/injection, schedule: Q01DX001 (ip), vehicle: saline 103 % of control

CCCCCCCCCCCCCCCCS(=O)(=O)Nc1cc(C(=O)NN)cc(C(=O)NN)c1
inactive: [4] 90 % of control | [5] 86 % of control | [6] 88 % of control

CCCCCCCCCCCCCCCCCCNC(=O)Nc1cccc(C)c1C
inactive: [12] 92 % of control | [22] 87 % of control | [16] 89 % of control | [23] 92 % of control | [15] 94 % of control | [24] 88 % of control
